In data set [1] the target is T1, cyclooxygenase (Rattus norvegicus, UniProt Q63921).
T1 construct: host or cells: RBL-1
T1 sequence (Q63921 27-602): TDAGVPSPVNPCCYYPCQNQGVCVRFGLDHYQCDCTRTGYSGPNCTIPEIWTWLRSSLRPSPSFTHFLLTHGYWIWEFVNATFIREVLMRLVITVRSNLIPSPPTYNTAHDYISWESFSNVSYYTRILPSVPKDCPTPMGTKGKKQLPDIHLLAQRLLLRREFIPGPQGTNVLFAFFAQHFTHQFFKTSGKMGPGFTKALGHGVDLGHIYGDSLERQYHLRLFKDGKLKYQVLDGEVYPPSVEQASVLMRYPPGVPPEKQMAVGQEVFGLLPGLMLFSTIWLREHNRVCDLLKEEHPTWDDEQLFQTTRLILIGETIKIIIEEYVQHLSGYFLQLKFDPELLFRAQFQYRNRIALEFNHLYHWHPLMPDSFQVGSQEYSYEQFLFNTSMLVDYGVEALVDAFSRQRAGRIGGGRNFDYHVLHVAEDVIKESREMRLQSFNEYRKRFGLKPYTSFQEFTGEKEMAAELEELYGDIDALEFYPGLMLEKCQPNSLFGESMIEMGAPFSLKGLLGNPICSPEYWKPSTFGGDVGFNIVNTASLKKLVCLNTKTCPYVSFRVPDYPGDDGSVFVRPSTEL
Kind of data set: ARBC whole cell cyclooxygenase assay (PGF2α formation, RBL-1 cells). The conditions noted are these: for IC50: 50% inhibition of PGF2α formation. It counts as cell-based. The procedure:
(§1) ARBL/ARBC WHOLE CELL 5-LIPOXYGENASE AND CYCLOOXYGENASE ASSAYS The rat basophilic leukemia cell line (RBL-1) was obtained from the American Type Culture Collection (Rockville, Md.). Radioimmunoassay (RIA) kits of LTB4 and PGF2α were obtained from Amersham (Arlington Heights, Ill.) and Seragen (Boston, Mass.), respectively. RBL-1 cells are grown in suspension culture in Eagle's minimum essential medium supplemented with 12% fetal bovine serum at 37° C. in an incubator supplied with air-5% carbon dioxide. Cells are harvested by centrifugation. They are washed with cold phosphate-buffered saline, pH 7.4 (PBS; NaCl, 7.1 g; Na2 HPO4, 1.15 g; KH2 PO4, 0.2 g; and KCl, 0.2 g/L). Cells are finally suspended in PBS containing 1.0 mM calcium at a density of 2×10^6 cells/mL. Cells are incubated […] test agent (in DMSO) (1% DMSO is without effect on arachidonic acid metabolism) for 10 minutes at room temperature. Calcium ionophore A23187 (5 μM) is added and cells are incubated for 7 minutes at 37° C. The reaction is stopped by chilling the tubes on ice for 10 minutes. Cells are separated by centrifugation and the supernatant is stored at -20° C. Aliquots (100 μL) are analyzed for LTB4 and PGF2α using radioimmunoassay kits as provided by the supplier. Table 1 contains biochemical data for compounds of Formula I obtained from this whole cell assay as amount of inhibition at given μM or IC50 s which are calculated as the concentration of a test compound in micromoles (μM) causing 50% inhibition of LTB4 or PGF2αformation.

Data set [2] relates to carrageenan-induced rat foot paw edema. Kind of data set: Carrageenan-induced rat foot paw edema-2 (CFE-2) assay. The data set is classed as in vivo. The conditions noted are these: dosed 1 hour before carrageenan, edema measured 5 hours after, read-out: CFE ID40. The procedure: CARRAGEENAN-INDUCED RAT FOOT PAW EDEMA-2 (CFE-2) ASSAY: PROTOCOL
Carrageenan solution (1% w/v) is prepared by dissolving 100 mg carrageenan (Marine Colloidal Div., Springfield, N.J.) in 10 mL of sterile saline (0.9%) solution (Travenol). The solution is vortexed for 30 to 45 minutes. Animals are dosed with compound 1 hour before carrageenan challenge. Foot paw edema is induced by injecting 0.10 mL of the 1% carrageenan subcutaneously into the plantar portion of the right hind paw of each rat under light anesthesia. Initial foot paw volume is measured immediately following carrageenan challenge using mercury plethysmography (Buxco Electronics). Edema is measured 5 hours after carrageenan. The difference between the 5-hour and the initial paw volume is expressed as delta edema. The delta edema for each test group of animals is used to calculate the percent inhibition of edema achieved by the compound at the test dose compared with the vehicle control group. The ID40 (the dose at which swelling is inhibited by 40%) is calculated by probit analysis for the dose at which 40% inhibition occurs.
On the technique in general: The carrageenan paw model is a standard test of acute inflammation.

In data set [3] the target is T2, 5-lipoxygenase (Rattus norvegicus, UniProt P12527).
T2 construct: host or cells: RBL-1
T2 sequence (P12527 1-673): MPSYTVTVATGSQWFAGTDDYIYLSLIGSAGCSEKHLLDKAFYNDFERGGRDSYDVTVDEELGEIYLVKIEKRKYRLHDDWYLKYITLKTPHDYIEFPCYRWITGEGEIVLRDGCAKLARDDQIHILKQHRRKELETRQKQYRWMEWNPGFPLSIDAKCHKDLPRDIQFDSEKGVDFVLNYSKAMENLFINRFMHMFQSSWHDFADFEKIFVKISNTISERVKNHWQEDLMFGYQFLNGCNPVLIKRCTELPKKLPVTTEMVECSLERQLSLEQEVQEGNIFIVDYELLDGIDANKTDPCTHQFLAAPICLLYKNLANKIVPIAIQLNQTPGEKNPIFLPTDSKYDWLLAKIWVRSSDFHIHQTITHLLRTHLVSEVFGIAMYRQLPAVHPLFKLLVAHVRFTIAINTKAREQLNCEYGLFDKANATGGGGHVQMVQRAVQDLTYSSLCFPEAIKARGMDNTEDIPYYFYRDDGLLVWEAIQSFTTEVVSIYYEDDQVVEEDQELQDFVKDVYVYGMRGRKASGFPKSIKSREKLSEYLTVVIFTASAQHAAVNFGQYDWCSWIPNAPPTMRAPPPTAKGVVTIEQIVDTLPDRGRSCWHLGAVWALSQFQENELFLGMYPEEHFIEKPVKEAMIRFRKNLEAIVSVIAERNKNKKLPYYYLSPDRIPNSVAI
The data set is described as follows: ARBL whole cell 5-lipoxygenase assay (LTB4 formation, RBL-1 cells). The conditions noted are these: 50% inhibition of LTB4 formation. The data set is classed as cell-based. The procedure: as §1

Data set [4] concerns Mycobacterium-induced rat footpad edema. Kind of data set: Mycobacterium-induced rat footpad edema assay (MFE). It counts as in vivo. The conditions noted are these: dosed 1 hour before Mycobacterium and on Days 1 and 2, swelling at 72 hours, read-out: MFE ID40. How it is done: MYCOBACTERIUM-INDUCED RAT FOOTPAD EDEMA ASSAY (MFE): PROTOCOL
Mycobacterium butyricum (5 mg/mL) is suspended in paraffin oil by sonication for 10 minutes in an ice bath. Footpad edema is induced on Day 0 by injecting 0.1 mL of the Mycobacterium mixture into the left hindpaw of lightly anesthetized rats. Swelling in the injected hindpaw is determined by mercury plethysmography 72 hours after injection. Groups of rats are treated with test compounds (suspended in 0.5% hydroxypropyl methylcellulose with 0.2% Tween-80) or vehicle 1 hour before Mycobacterium injection and on Days 1 and 2. Inhibition of swelling is determined by comparing the change in hindpaw volume in compound- and vehicle-treated rats. An ID40 (the dose at which swelling is inhibited by 40%) is calculated by probit analysis.

The test system of data set [5] is gastric ulcers. Kind of data set: Gastric ulcerogenicity (UD). The data set is classed as in vivo, Male outbred Wistar rats. The conditions noted are these: @ 200 mg/kg; oral, fasted rats, 6 hours; class symbol. The procedure: GASTRIC ULCEROGENICITY (UD): PROTOCOL
Male outbred Wistar rats (100 to 250 g) are fasted for 24 hours. After fasting, test compounds are administered orally (in 2 mL/kg of 0.5% hydroxypropyl methylcellulose) and the rats are denied access to food and water for 6 more hours. The rats are then sacrificed with CO2 so that the stomachs can be removed, opened along the greater curvature, and evaluated for the presence of gastric ulcers. Results are expressed as the percent of rats with gastric ulcers at a given dose or as the UD50 (the dose which causes ulcers in 50% of the rats).

Data on three compounds can be found in patent publication US5393923A, “3,5-di-t-butyl-4-hydroxyphenylmethylhydroxylamines and their derivatives, pharmaceutical compositions, and methods of use therefor” (Warner-Lambert Company, priority 1993, dated 1995).

Structures are written as SMILES. Counter-ions that a name gives are not always drawn.

As for `CN(O)C(c1ccccc1)c1cc(C(C)(C)C)c(O)c(C(C)(C)C)c1` (centres unmarked) [Example 19, 2,6-Bis(1,1-dimethylethyl)-4-[(hydroxymethylamino)phenylmethyl]phenol, monohydrochloride], the IC50 in data set [1] is 4.3 µM; in data set [3], 1.2 µM. Further, the ED40 in data set [2] was more than 30 mg/kg.

Take `CC(C)(C)c1cc(C(NO)c2ccccc2)cc(C(C)(C)C)c1O` (centres unmarked) [Example 20]: the IC50 in data set [1] amounted to 4.1 µM; in data set [3], 2.3 µM. The figures for the ED40 in data set [2] and in data set [4] were 13.2 mg/kg and 3.8 mg/kg, respectively. The UD50 result in data set [5] was “N (N = less than 40% inhibition at given concentration)”.

On to `CC(=O)N(O)C(c1ccccc1)c1cc(C(C)(C)C)c(O)c(C(C)(C)C)c1` (centres unmarked) [Example 22, N-[[3,5-Bis(1,1-dimethylethyl)-4-hydroxyphenyl]-phenylmethyl]-N-hydroxyacetamide], for which the “ARBC inhibition of PGF2α at given concentration” value in data set [1] (@ 16 μM, A23187) was 42/75. The ED40 in data set [2] is more than 30 mg/kg. This compound showed an IC50 in data set [3] of 4.8 µM.

A word on the IC50: it is the concentration needed to halve the response being measured.
